{
  "source": "patent US20220144847A1",
  "about": "“HETEROCYCLIC COMPOUND, PHARMACEUTICAL COMPOSITION COMPRISING SAME, PREPARATION METHOD THEREFOR, AND USE THEREOF” (Sichuan Kelun-Biotech Biopharmaceutical Co., Ltd., priority 2019, published 2022)",
  "format_in_all_cases": "biochemical",
  "key": {"[1]": {"target": "RET-M918T (Homo sapiens, UniProt P07949, M918T)", "sequence (P07949 29-1114 M918T)": "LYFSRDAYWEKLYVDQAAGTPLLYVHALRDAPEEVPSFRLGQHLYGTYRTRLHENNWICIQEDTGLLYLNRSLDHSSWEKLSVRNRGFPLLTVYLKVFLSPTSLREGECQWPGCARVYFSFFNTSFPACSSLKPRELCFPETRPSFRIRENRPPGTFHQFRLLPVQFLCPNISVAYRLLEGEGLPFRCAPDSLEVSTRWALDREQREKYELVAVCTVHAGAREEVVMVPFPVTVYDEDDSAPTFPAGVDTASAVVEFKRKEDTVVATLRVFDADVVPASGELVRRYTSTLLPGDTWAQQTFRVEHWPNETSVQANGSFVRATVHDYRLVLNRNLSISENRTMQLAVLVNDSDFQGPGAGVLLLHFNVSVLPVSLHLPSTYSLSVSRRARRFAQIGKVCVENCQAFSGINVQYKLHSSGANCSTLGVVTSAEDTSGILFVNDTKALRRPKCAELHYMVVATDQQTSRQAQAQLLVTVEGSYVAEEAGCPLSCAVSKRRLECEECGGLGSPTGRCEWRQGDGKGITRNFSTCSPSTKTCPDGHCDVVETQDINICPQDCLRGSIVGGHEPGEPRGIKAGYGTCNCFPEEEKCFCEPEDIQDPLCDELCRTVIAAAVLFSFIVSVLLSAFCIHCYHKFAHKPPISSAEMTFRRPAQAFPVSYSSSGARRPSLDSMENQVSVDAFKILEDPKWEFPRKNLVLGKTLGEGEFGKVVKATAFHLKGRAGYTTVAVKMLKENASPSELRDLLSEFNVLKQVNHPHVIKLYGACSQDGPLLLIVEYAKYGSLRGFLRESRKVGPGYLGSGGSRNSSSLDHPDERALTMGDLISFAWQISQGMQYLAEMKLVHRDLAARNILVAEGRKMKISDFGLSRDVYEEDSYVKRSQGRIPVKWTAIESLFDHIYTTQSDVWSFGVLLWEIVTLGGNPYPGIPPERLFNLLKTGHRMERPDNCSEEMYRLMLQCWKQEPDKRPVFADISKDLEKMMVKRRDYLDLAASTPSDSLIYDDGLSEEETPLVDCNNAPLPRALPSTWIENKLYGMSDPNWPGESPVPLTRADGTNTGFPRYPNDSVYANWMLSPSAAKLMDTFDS", "assay": "RET inhibition experiment (HTRF KinEASE-TK kit), mutant RET-M918T", "conditions": "for inhibition at 0.1 µM: read-out: Inhibition rate on RET-M918T", "protocol": "(§1) Experimental method: […] After incubation at room temperature for 40 min, TK antibody-cryptate and streptavidin-XL665 were added, and the test was performed after incubation at room temperature for 45 min. With the solvent group (DMSO) as the negative control and the buffer group (without RET enzyme) as the blank control, the relative inhibitory activity percentages (i.e., inhibition rates) of different concentrations of the compounds were computed as per the following formula: […] The relative inhibitory activity percentages of different concentrations of the compounds were plotted with respect to the compound concentrations, and the curve was fitted according to a four-parameter model to compute the IC50 value as per the following formula: y=min+(max-min)/(1+(x/IC50)^(-Hillslope)) where y is the relative inhibitory activity percentage, max is the maximum value of the fitted curve, min is the minimum value of the fitted curve, x is the logarithmic concentration of the compound, and Hillslope is the slope of the curve."}, "[2]": {"target": "RET-V804M (Homo sapiens, UniProt P07949, V804M)", "sequence (P07949 29-1114 V804M)": "as the sequence (P07949 29-1114 M918T) above, with V776M, T890M counted along it", "assay": "RET inhibition experiment (HTRF KinEASE-TK kit), mutant RET-V804M", "conditions": "for inhibition at 0.1 µM / inhibition at 0.01 µM: read-out: Inhibition rate on RET-V804M; for inhibition at 0.01 µM: 10 nM (Table 2)", "procedure,_shortened": "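Enzyme was pre-incubated with compound at room temperature for 30 min, then substrate and ATP were added for a 40 min reaction. HTRF signal was read after 45 min with TK antibody-cryptate and streptavidin-XL665. IC50 came from a four-parameter fit of percent inhibition against DMSO and no-enzyme controls.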"}, "[3]": {"target": "VEGFR2 (Homo sapiens, UniProt P35968)", "sequence (P35968 20-1356, species assumed)": "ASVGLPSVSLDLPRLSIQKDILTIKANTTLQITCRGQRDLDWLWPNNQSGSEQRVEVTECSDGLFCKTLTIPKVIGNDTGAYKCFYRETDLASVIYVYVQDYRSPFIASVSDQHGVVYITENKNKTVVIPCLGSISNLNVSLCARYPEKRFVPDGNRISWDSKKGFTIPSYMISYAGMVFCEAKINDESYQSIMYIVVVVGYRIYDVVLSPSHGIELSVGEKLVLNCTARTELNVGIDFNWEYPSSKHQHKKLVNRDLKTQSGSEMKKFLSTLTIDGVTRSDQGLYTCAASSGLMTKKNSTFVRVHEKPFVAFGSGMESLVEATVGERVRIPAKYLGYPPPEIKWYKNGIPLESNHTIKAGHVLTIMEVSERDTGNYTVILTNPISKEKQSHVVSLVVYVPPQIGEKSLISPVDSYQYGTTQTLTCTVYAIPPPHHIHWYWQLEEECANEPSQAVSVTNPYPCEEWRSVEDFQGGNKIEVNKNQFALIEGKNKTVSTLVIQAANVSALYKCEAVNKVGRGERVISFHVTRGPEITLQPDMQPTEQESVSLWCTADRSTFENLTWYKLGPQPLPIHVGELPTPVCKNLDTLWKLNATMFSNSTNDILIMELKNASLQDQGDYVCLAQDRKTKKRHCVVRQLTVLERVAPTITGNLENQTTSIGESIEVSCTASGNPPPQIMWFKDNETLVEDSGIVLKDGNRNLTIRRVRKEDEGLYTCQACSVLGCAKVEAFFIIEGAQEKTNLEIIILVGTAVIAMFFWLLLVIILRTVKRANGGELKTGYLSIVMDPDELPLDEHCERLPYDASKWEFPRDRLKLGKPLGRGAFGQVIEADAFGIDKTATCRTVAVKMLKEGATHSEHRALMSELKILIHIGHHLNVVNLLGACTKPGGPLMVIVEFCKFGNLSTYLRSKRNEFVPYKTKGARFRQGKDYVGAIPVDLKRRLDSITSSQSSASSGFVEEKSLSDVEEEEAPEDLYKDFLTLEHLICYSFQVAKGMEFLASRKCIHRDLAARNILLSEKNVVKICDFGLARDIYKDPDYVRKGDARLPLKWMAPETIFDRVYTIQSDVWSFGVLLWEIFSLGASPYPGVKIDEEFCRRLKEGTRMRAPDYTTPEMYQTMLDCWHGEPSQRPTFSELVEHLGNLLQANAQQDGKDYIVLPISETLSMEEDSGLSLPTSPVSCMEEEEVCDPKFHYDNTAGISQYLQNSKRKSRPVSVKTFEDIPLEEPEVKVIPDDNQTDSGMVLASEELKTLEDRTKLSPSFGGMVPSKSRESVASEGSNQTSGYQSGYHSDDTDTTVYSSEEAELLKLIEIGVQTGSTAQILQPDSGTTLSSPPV", "assay": "VEGFR2 inhibition experiment (HTRF KinEASE-TK kit)", "conditions": "read-out: Inhibition rate on VEGFR2; for inhibition at 0.03 µM: 30 nM", "procedure,_shortened": "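HTRF KinEASE-TK format: enzyme and compound were preincubated 30 min at room temperature, then substrate and ATP added for 40 min, followed by cryptate antibody/streptavidin-XL665 detection for 45 min. Inhibition was normalised to DMSO and no-enzyme controls; IC50 from a four-parameter fit.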"}, "[4]": {"target": "T1, RET-CCDC6 (Homo sapiens, UniProt P07949)", "T1 construct": "CCDC6 fusion partner (Q16204 for human); the other entry of the earlier key: CCDC6 (Q16204, Coiled-coil domain-containing protein 6)", "T1 sequence (P07949 with tags, fused parts or gaps)": "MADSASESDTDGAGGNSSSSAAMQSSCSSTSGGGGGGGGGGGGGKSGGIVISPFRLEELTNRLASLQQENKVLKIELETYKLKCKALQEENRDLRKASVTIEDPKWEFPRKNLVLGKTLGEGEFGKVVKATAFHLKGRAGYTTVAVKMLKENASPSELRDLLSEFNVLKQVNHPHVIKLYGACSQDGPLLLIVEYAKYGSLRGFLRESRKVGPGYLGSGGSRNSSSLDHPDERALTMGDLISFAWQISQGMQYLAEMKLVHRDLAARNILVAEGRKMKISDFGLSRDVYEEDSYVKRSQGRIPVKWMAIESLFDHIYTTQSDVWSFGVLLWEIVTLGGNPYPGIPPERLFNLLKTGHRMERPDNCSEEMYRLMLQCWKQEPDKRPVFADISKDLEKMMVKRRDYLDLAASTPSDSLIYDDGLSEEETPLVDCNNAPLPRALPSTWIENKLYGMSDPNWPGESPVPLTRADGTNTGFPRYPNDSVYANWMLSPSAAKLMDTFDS", "assay": "RET inhibition experiment (HTRF KinEASE-TK kit), fusion-type RET enzyme", "conditions": "read-out: The IC50 (nM) for inhibiting RET-CCDC6", "protocol": "as §1"}, "[5]": {"conditions": "compound concentration 100 nM (Table 1)"}},
  "note": "Read-outs that look alike come from different tables or passages of the source.",
  "data": [
    {"smiles": "Cc1cc(Nc2cc(C)[nH]n2)nc(-c2ccc(N3CC4CC(C3)N4Cc3ccccc3)nc2)n1", "note": "[Compound 1, 2-(6-(6-benzyl-3,6-diazabicyclo[3.1.1]heptan-3-yl)pyridin-3-yl)-6-methyl-N-(5-methyl-1H-pyrazol-3-yl)pyrimidin-4-amine]", "values": [
      {"measurement": "inhibition at 0.1 µM", "setting": "[1]", "value": 33, "unit": "%"},
      {"measurement": "inhibition at 0.1 µM", "setting": "[2]", "value": 86, "unit": "%"},
      {"measurement": "inhibition at 0.1 µM", "setting": "[3]", "value": 38, "unit": "%"}
    ]},
    {"smiles": "COc1ccc(CN2C3CC2CN(c2ccc(-c4nc(C)cc(Nc5cc(C)[nH]n5)n4)cn2)C3)cc1", "note": "[Compound 2, 2-(6-(6-(4-methoxybenzyl)-3,6-diazabicyclo[3.1.1]heptan-3-yl)pyridin-3-yl)-6-methyl-N-(5-methyl-1H-pyrazol-3-yl)pyrimidin-4-amine]", "values": [
      {"measurement": "inhibition at 0.1 µM", "setting": "[1]", "value": 51, "unit": "%"},
      {"measurement": "inhibition at 0.1 µM", "setting": "[2]", "value": 93, "unit": "%"},
      {"measurement": "inhibition at 0.1 µM", "setting": "[3]", "value": 29, "unit": "%"}
    ]},
    {"smiles": "Cc1cc(Nc2cc(C)[nH]n2)nc(-c2ccc(N3CC4CC(C3)N4Cc3ccc(Cl)nc3)nc2)n1", "note": "[Compound 3, 2-(6-(6-((6-chloropyridin-3-yl)methyl)-3,6-diazabicyclo[3.1.1]heptan-3-yl)pyridin-3-yl)-6-methyl-N-(5-methyl-1H-pyrazol-3-yl)pyrimidin-4-amine]", "values": [
      {"measurement": "inhibition at 0.1 µM", "setting": "[1]; [5]", "value": 34, "unit": "%"},
      {"measurement": "inhibition at 0.1 µM", "setting": "[2]; [5]", "value": 86, "unit": "%"},
      {"measurement": "inhibition at 0.1 µM", "setting": "[3]; 100 nM", "value": 14, "unit": "%"}
    ]},
    {"smiles": "COc1ccc(CN2C3CC2CN(c2ccc(-c4nc(C)cc(Nc5cc(C)[nH]n5)n4)cn2)C3)cn1", "note": "[Compound 4, 2-(6-(6-((6-methoxypyridin-3-yl)methyl)-3,6-diazabicyclo[3.1.1]heptan-3-yl)pyridin-3-yl)-6-methyl-N-(5-methyl-1H-pyrazol-3-yl)pyrimidin-4-amine]", "values": [
      {"measurement": "inhibition at 0.1 µM", "setting": "[1]; [5]", "value": 69, "unit": "%"},
      {"measurement": "inhibition at 1 µM", "setting": "[3]; 1000 nM", "value": 52, "unit": "%"}
    ]},
    {"smiles": "Cc1cc(Nc2cc(C)[nH]n2)nc(-c2ccc(N3CC4CC(C3)N4Cc3ccc(Cl)cn3)nc2)n1", "note": "[Compound 69, 2-(6-(6-((5-chloropyridin-2-yl)methyl)-3,6-diazabicyclo[3.1.1]heptan-3-yl)pyridin-3-yl)-6-methyl-N-(5-methyl-1H-pyrazol-3-yl)pyrimidin-4-amine]", "values": [
      {"measurement": "IC50", "setting": "[1]; read-out: The IC50 (nM) for inhibiting the enzyme RET-M918T", "value": "8.6 ± 1.46", "unit": "nM"},
      {"measurement": "inhibition at 0.01 µM", "setting": "[2]", "value": 56, "unit": "%"},
      {"measurement": "inhibition at 0.1 µM", "setting": "[3]; 100 nM", "value": 2, "unit": "%"},
      {"measurement": "IC50", "setting": "[4]", "value": "11 ± 9.65", "unit": "nM"}
    ]},
    {"smiles": "Cc1cc(Nc2cc(C)[nH]n2)nc(-c2ccc(N3CC4CC(C3)N4Cc3ccc(-c4ccc(C)o4)nc3)nc2)n1", "note": "[Compound 133, 6-methyl-N-(5-methyl-1H-pyrazol-3-yl)-2-(6-(6-((6-(5-methylfuran-2-yl)pyridin-3-yl)methyl)-3,6-diazabicyclo[3.1.1]heptan-3-yl)pyridin-3-yl)pyrimidin-4-amine]", "values": [
      {"measurement": "inhibition at 0.01 µM", "setting": "[2]", "value": 82, "unit": "%"},
      {"measurement": "inhibition at 0.05 µM", "setting": "[3]; 50 nM", "value": 28, "unit": "%"}
    ]},
    {"smiles": "Cc1cc(Nc2cc(C)[nH]n2)nc(-c2ccc(N3CC4CC(C3)N4Cc3ccc(-c4cnn(C(C)C)c4)nc3)nc2)n1", "note": "[Compound 135, 2-(6-(6-((6-(1-isopropyl-1H-pyrazol-4-yl)pyridin-3-yl)methyl)-3,6-diazabicyclo[3.1.1]heptan-3-yl)pyridin-3-yl)-6-methyl-N-(5-methyl-1H-pyrazol-3-yl)pyrimidin-4-amine]", "values": [
      {"measurement": "inhibition at 0.01 µM", "setting": "[2]", "value": 65, "unit": "%"},
      {"measurement": "inhibition at 0.1 µM", "setting": "[3]; 100 nM", "value": 34, "unit": "%"}
    ]},
    {"smiles": "Cc1cc(Nc2cc(C)[nH]n2)nc(-c2ccc(N3CC4CC(C3)N4Cc3ccc(-n4nccc4C(C)(C)O)nc3)nc2)n1", "note": "[Compound 136, 2-(1-(5-((3-(5-(4-methyl-6-((5-methyl-1H-pyrazol-3-yl)-amino)pyrimidin-2-yl)pyridin-2-yl)-3,6-diazabicyclo[3.1.1]heptan-6-yl)methyl)pyridin-2-yl)-1H-pyrazol-5-yl)propan-2-ol]", "values": [
      {"measurement": "IC50", "setting": "[2]; read-out: The IC50 (nM) for inhibiting V804M", "value": "2.35 ± 0.13", "unit": "nM"},
      {"measurement": "inhibition at 0.03 µM", "setting": "[3]", "value": 18, "unit": "%"}
    ]},
    {"smiles": "Cc1cc(Nc2cc(C)[nH]n2)nc(-c2ccc(N3CC4CC(C3)N4Cc3ccc(-n4ccc(CO)n4)nc3)nc2)n1", "note": "[Compound 137, (1-(5-((3-(5-(4-methyl-6-((5-methyl-1H-pyrazol-3-yl)-amino)pyrimidin-2-yl)pyridin-2-yl)-3,6-diazabicyclo[3.1.1]heptan-6-yl)methyl)pyridin-2-yl)-1H-pyrazol-3-yl)methanol]", "values": [
      {"measurement": "inhibition at 0.01 µM", "setting": "[2]", "value": 93, "unit": "%"},
      {"measurement": "inhibition at 0.03 µM", "setting": "[3]", "value": 26, "unit": "%"}
    ]}
  ]
}
